Data on 1 compound can be found in US9957257B2, “Amide compounds as 5-HT4 receptor agonists” (SUVEN LIFE SCIENCES LIMITED, priority 2015, dated 2018).

A short description of data set [1]: Rodent pharmacokinetic study. The data set is classed as in vivo, Male wistar rats. The conditions noted are these: male, Wistar, plasma, rat. The protocol: Male wistar rats (225±25 grams) were used as experimental animals. Three to five animals were housed in each cage. Two days prior to dosing day, male wistar rats (225-250 grams) were anesthetized with isoflurane for surgical placement of jugular vein catheter. Animals were fasted overnight before oral dosing (p.o) and food pellets were allowed 2 hours post dosing, whereas during intravenous dosing food and water were provided as ad libitum. Three rats were dosed with test compounds (3 mg/kg) orally and intravenously (1 mg/kg).
At each time point blood was collected through jugular vein and immediately replenish with an equivalent volume of normal saline from freely moving rats. Collected blood was transferred into a labeled eppendr off containing 10 μL of heparin as anticoagulant. Typically blood samples were collected as following time points: Pre dose, 0.08 (only i.v.), 0.25, 0.5, 1, 2, 4, 6, 8, and 24 hours post dose-(n=3). Blood was centrifuged at 4000 rpm for 10 minutes. Plasma was prepared and stored frozen at −20° C. until analysis. The concentrations of the test compounds were quantified in plasma by qualified LC-MS/MS method using suitable extraction technique. The test compounds were quantified in the calibration range around 2-2000 ng/mL in plasma. Study samples were analyzed using calibration samples in the batch and quality control samples spread across the batch.
Pharmacokinetic parameters Cmax, Tmax, AUCt, T1/2 and Bioavailability were calculated by non-compartmental model using standard non-compartmental model by using WinNonLin 5.0.1 or Phoenix WinNonlin 6.2 version Software package.

Data set [2] relates to sAPPα. In words: Estimation of mice brain cortical sAPPα levels (ELISA). Format: in vivo, Male C57BL/6J mice. The following applies: 1 mg/kg, s.c., 60 minutes post treatment. How it is done:
3. The supernatant was discarded and to the precipitate, 4 times volume (0.8 mL/200 mg tissues) of TBS was added.
4. From the above centrifuged mixture the supernatant was discarded and 10 times volume of 6M Guanidine-HCl in 50 mM Tris buffer pH: 7.6 (500 μL/50 mg tissues) was added.
5. […] From this 5 μL of supernatant solution was taken and diluted with 155 μL of EIA buffer (dilution factor 32).
The entire procedure was followed as described in the ELISA kit manual (Mouse/Rat sAPPα ELISA, Catalog Number: JP27415, Innovation Beyond Limits International, Hamburg, Germany).
Statistical analyses were performed using the Graph Pad Prism (Version 4).

The subject of data set [3] is acetylcholine. The data set can be described thus: Modulation of acetylcholine from the ventral hippocampus (microdialysis). The following applies: 1.0 mg/kg, p.o. Format: in vivo, male Wistar rats. The source says: Male Wistar rats (240-300 grams) were stereotaxically implanted with a microdialysis guide cannula in ventral hippocampus (AP: −5.2 mm, ML: +5.0 mm, DV: −3.8 mm). Co-ordinates were taken according to Paxinos and Watson (2004) with reference points taken from bregma and vertical from the skull. The rats were allowed to recover individually for four to five days in a round bottom Plexiglas bowl with free access to feed and water.
One day prior to the microdialysis experiment, rats were connected to a dual quartz lined two-channel liquid swivel (Instech, UK) on a counter balance lever arm, which allowed unrestricted movements of the animal. […]
A stabilization period of 2 h was maintained and five basal samples were collected at 20 minutes intervals. […] Dialysates were stored below −70° C. until quantitation of acetylcholine.
(§1) Acetylcholine in dialysate was quantified in the calibration range of 0.103 nmol-103.491 nmol using LC-MS/MS method.
All microdialysis data were plotted as percent change from mean dialysate basal concentrations with 100% defined as the average of five pre-dose values. The AUC was calculated by trapezoidal rule using WinNonlin (5.0.1 version, Pharsight Corp. CA). The statistical significance between the mean AUC values of treatment groups with vehicle was calculated using one-way ANOVA followed by Dunnett's test. […]

Data set [4] concerns acetylcholine. In words: Modulation of acetylcholine from the frontal cortex (microdialysis). The conditions noted are these: p.o. The data set is classed as in vivo, male Wistar rats.
Text: Male Wistar rats (240-300 grams) were stereotaxically implanted with a microdialysis guide cannula in frontal cortex (AP: +3.2 mm, ML: −3.2 mm, DV: −1.5 mm). Co-ordinates were taken according to Paxinos and Watson (2004) with reference points taken from bregma and vertical from the skull. The rats were allowed to recover individually for four to five days in a round bottom Plexiglas bowl with free access to feed and water.
One day prior to the microdialysis experiment, rats were connected to a dual quartz lined two-channel liquid swivel (Instech, UK) on a counter balance lever arm, which allowed unrestricted movements of the animal. Sixteen hour before start of study, a pre-equilibrated microdialysis probe (3 mm dialysis membrane) was inserted into the frontal cortex through the guide cannula.
A stabilization period of 2 hours was maintained and five basal samples were collected at 20 minutes intervals. The test compound, Example 50 or vehicle was administered and dialysate samples were collected at 20 minutes interval for an additional period of 4 hours. Dialysates were stored below −70° C. until quantitation of acetylcholine.
as §1
All microdialysis data were plotted as percent change from mean dialysate basal concentrations with 100% defined as the average of five pre-dose values. The AUC was calculated by trapezoidal rule using WinNonlin (5.0.1 version, Pharsight Corp. CA). The statistical significance between the mean AUC values of treatment groups with vehicle was calculated using one-way ANOVA followed by Dunnett's test. For each treatment group, the percent increase in acetylcholine levels was compared to the vehicle group using two-way analysis of variance (time and treatment), followed by Bonferroni's multiple comparison test. Statistical significance was considered at a p value less than 0.05.
In-correct probe placement was considered as criteria to reject the data from animal.

For data set [5], the target named is T1, hERG (Homo sapiens, UniProt Q12809).
T1 construct: expressed in transfected cells; host or cells: HEK293 (hERG-HEK293)
The data set can be described thus: Automated hERG patch clamp assay. The conditions noted are these: hERG-HEK293 cells, whole cell patch clamp. Format: cell-based. The protocol: To study the cardiac safety of test compounds using automated hERG patch clamp assay, hERG-HEK293 cells were grown to 70% confluency and were harvested using accumax. The cells were then suspended in complete media and were incubated at 37° C. and 5% CO2 for 30 minutes before using these cells for the whole cell patch clamp assay. Whole cell patch clamp recordings were conducted on Nanion's Patchliner using I-V protocol of voltage step from holding potential of −80 mV to +40 mV for 500 ms and then to test potential for 500 ms and back to holding potential of −80 mV. Pulses were elicited every 10 seconds. Each test compound concentration was incubated for 5 minutes. Data analysis was done by plotting the raw data using Igor Pro software and IC50 values were calculated. Cells with resistance >1 Gohms and tail currents of >200 pA were taken into consideration for data analysis. Quinidine was used as positive control.
In general terms: Block of hERG is tested as a sign of cardiac risk.

T1 sequence (Q12809 whole entry): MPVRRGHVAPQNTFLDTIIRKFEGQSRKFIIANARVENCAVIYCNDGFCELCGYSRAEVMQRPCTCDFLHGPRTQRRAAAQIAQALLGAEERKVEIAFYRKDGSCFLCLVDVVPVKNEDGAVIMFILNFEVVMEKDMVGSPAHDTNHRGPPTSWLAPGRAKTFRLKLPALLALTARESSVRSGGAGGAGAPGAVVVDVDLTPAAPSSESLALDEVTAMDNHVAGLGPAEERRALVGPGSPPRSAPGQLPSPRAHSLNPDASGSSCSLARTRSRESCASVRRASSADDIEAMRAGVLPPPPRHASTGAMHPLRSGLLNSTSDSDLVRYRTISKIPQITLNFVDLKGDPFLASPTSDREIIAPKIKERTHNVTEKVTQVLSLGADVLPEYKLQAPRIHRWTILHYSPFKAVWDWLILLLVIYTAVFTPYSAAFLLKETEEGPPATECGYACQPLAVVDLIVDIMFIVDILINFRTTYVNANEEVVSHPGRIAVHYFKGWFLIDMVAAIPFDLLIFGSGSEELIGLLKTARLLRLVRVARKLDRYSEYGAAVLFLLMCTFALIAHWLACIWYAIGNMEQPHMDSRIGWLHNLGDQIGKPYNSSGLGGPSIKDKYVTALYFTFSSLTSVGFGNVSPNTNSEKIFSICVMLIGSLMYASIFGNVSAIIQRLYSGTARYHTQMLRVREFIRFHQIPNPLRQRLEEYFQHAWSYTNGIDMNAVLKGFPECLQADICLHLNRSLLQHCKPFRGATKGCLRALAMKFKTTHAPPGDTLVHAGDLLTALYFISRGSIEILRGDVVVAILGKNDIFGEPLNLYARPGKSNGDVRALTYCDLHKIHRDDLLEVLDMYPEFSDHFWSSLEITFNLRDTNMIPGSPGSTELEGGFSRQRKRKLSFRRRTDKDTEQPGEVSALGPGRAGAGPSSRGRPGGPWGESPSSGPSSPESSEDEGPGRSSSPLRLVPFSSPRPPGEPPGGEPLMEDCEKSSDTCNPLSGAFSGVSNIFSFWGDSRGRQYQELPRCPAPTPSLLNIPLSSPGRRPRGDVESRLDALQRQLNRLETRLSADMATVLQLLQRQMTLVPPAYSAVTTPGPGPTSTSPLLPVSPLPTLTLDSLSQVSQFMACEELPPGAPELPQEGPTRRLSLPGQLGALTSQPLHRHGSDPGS

On to `CC(C)(O)CN1CCC(F)(CNC(=O)c2cc(Cl)c(N)c3ccoc23)CC1` [Example 50, 4-Amino-5-chloro-N-{[4-fluoro-1-(2-hydroxy-2-methylpropyl)-4-piperidinyl]methyl}benzofuran-7-carboxamide L(+)-tartarate], for which, in data set [1] (1 mg/kg, intravenous (bolus)), the AUC(0-t) (in general, the area under the concentration-time curve up to a stated or last time point) was found to be 182 ± 37 ng·h/mL and the half-life (commonly how long it takes for the measured level to halve) was 1.2 h. Besides, the bioavailability (usually the share of a dose that reaches the circulation, judged against a reference dose that is usually intravenous) in data set [1] (3 mg/kg oral vs 1 mg/kg intravenous) came to 63 ± 13%. In data set [1] (3 mg/kg, oral (gavage)), the AUC(0-t) is 346 ± 71 ng·h/mL, the maximum concentration (Cmax) (commonly the highest concentration seen after dosing) was 230 ± 56 ng/mL, the Tmax (usually the time at which the peak concentration occurs) was 0.25 h and the half-life is 1.5 h. Moreover, the “increase in mice brain cortical sAPPα levels” value in data set [2] is on record as 44%. In data set [3], the “Area under the curve increase, hippocampal acetylcholine” value is given as 31% and the “increase in acetylcholine levels from ventral hippocampus” value is reported as 51%. Moreover, in data set [4] (10.0 mg/kg), the “Acetylcholine levels, frontal cortex, % of pre-dose levels” value amounted to 204% and the “Area under the curve (AUC), frontal cortex acetylcholine” value was “significant increase”. The “acetylcholine levels of frontal cortex” value in data set [4] (across doses) is given as “dose-dependent increase”. Further, the IC50 (as a rule, the midpoint of a concentration-inhibition curve) in data set [5] was more than 10 µM.
